Assay results as given in ChEMBL document CHEMBL1135903 (J Med Chem, 2002).

What was measured:
Carbonic anhydrase 4 = target: T1, Carbonic anhydrase 4 (Bos taurus, UniProt Q95323)
T1 sequence (Q95323 whole entry): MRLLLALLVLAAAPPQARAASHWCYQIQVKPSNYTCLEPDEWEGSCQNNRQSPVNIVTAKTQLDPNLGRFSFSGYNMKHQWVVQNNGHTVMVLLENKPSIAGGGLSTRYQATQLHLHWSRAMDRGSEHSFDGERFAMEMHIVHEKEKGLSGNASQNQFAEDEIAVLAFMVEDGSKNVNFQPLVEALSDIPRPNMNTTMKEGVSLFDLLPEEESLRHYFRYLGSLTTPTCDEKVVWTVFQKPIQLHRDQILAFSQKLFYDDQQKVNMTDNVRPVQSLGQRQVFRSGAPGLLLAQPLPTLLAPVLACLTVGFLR
Description: Inhibitory activity against bovine carbonic anhydrase IV

Carbonic anhydrase 1 = Carbonic anhydrase 1 (Homo sapiens, UniProt P00915)
Carbonic anhydrase 1, sequence (P00915 whole entry): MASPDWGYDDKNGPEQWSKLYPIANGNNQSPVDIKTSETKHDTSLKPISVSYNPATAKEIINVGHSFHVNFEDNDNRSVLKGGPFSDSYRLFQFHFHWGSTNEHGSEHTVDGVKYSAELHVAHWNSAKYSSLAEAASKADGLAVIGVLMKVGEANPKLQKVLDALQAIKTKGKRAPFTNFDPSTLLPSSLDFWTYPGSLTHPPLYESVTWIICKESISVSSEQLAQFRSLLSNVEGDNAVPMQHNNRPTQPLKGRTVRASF
Description: Inhibitory activity against Human carbonic anhydrase I

| Structure (SMILES) | Ki (Carbonic anhydrase 4) | Ki (Carbonic anhydrase 1) |
| --- | --- | --- |
| NS(=O)(=O)c1cccc(NC(=O)CNCCNCC(=O)O)c1 | 1010 nM | 13000 nM |
| NS(=O)(=O)c1ccc(CNC(=O)CN(CCOCCOCCN(CC(=O)O)CC(=O)NCc2ccc(S(N)(=O)=O)cc2)CC(=O)O)cc1 [listing 1 of 2 here] | 39 nM | 350 nM |
| NS(=O)(=O)c1ccc(CCOC(=O)CNCCNCC(=O)O)cc1 | 330 nM | 1000 nM |
| NS(=O)(=O)c1nnc(NC(=O)CN(CCN(CC(=O)O)c2ccccc2O)c2ccccc2O)s1 | 105 nM | 245 nM |
| Cn1nc(S(N)(=O)=O)s/c1=N/C(=O)CN(CC(=O)O)CC(=O)O | 106 nM | 520 nM |
| NS(=O)(=O)c1ccc(NC(=O)CN(CCN(CC(=O)O)CC(=O)O)CC(=O)O)c(F)c1 | 40 nM | 360 nM |
| NS(=O)(=O)c1cc(S(N)(=O)=O)c(NC(=O)CNCC(=O)O)c(Cl)c1Cl | 107 nM | 405 nM |
| NS(=O)(=O)c1ccc(CCOC(=O)CN(CCOCCOCCN(CC(=O)O)CC(=O)OCCc2ccc(S(N)(=O)=O)cc2)CC(=O)O)cc1 | 96 nM | 300 nM |
| NS(=O)(=O)c1ccc(NNC(=O)CN(CCN(CC(=O)O)CC(=O)NNc2ccc(S(N)(=O)=O)cc2)CC(=O)O)cc1 | 510 nM | 12500 nM |
| NS(=O)(=O)c1ccc(CCNC(=O)CNCCNCC(=O)O)cc1 | 250 nM | 1540 nM |
| NS(=O)(=O)c1nnc(NC(=O)CCNC(=O)CN(CC(=O)O)CC(=O)O)s1 | 45 nM | 268 nM |
| NS(=O)(=O)c1ccc(NC(=O)CNCCNCC(=O)O)c(I)c1 | 115 nM | 430 nM |
| NS(=O)(=O)c1ccc(NC(=O)CN(CC(=O)O)CC(=O)O)c(Cl)c1 | 150 nM | 960 nM |
| NS(=O)(=O)c1ccc(NC(=O)CNCCNCC(=O)O)c(Br)c1 | 54 nM | 380 nM |
| NS(=O)(=O)c1ccc(CCOC(=O)CN(CCN(CC(=O)O)CC(=O)O)CC(=O)O)cc1 | 310 nM | 640 nM |
| NS(=O)(=O)c1ccccc1NC(=O)CN(CCN(CC(=O)O)c1ccccc1O)c1ccccc1O | 800 nM | 12500 nM |
| NS(=O)(=O)c1ccc(NC(=O)CNCCNCC(=O)O)c(Cl)c1 | 155 nM | 900 nM |
| NS(=O)(=O)c1ccc(COC(=O)CNCCNCC(=O)O)cc1 | 350 nM | 1020 nM |
| NS(=O)(=O)c1ccc(COC(=O)CN(CCN(CC(=O)O)c2ccccc2O)c2ccccc2O)cc1 | 320 nM | 945 nM |
| NS(=O)(=O)c1ccc(NC(=O)CN(CCOCCOCCN(CC(=O)O)CC(=O)Nc2ccc(S(N)(=O)=O)cc2)CC(=O)O)cc1 [listing 1 of 2 here] | 150 nM | 3800 nM |
| NS(=O)(=O)c1ccc(NC(=O)CN(CCN(CC(=O)O)c2ccccc2O)c2ccccc2O)c(F)c1 | 79 nM | 450 nM |
| NS(=O)(=O)c1ccc(NNC(=O)CN(CCOCCOCCN(CC(=O)O)CC(=O)O)CC(=O)O)cc1 | 620 nM | 12500 nM |
| NS(=O)(=O)c1ccc(NC(=O)CNCCNCC(=O)O)c(F)c1 | 103 nM | 780 nM |

| Structure (SMILES) | Ki (Carbonic anhydrase 4) | Ki (Carbonic anhydrase 1) |
| --- | --- | --- |
| NS(=O)(=O)c1nnc(NC(=O)CNCCNCC(=O)O)s1 | 130 nM | 250 nM |
| NS(=O)(=O)c1ccc(NC(=O)CN(CCN(CC(=O)O)c2ccccc2O)c2ccccc2O)c(Cl)c1 | 108 nM | 870 nM |
| NS(=O)(=O)c1cc(S(N)(=O)=O)c(NC(=O)CN(CCOCCOCCN(CC(=O)O)CC(=O)O)CC(=O)O)cc1Cl | 65 nM | 93 nM |
| NS(=O)(=O)c1nnc(NC(=O)CCNC(=O)CNCCNCC(=O)O)s1 | 39 nM | 240 nM |
| NS(=O)(=O)c1ccc(CNC(=O)CN(CCN(CC(=O)O)CC(=O)O)CC(=O)O)cc1 | 83 nM | 900 nM |
| NS(=O)(=O)c1ccccc1NC(=O)CN(CCOCCOCCN(CC(=O)O)CC(=O)O)CC(=O)O | 545 nM | 8900 nM |
| Cn1nc(S(N)(=O)=O)s/c1=N/C(=O)CN(CCN(CC(=O)O)c1ccccc1O)c1ccccc1O | 57 nM | 250 nM |
| NS(=O)(=O)c1cc(S(N)(=O)=O)c(NC(=O)CNCCNCC(=O)O)c(Cl)c1Cl | 110 nM | 290 nM |
| NS(=O)(=O)c1ccc(NC(=O)CN(CC(=O)O)CC(=O)O)c(I)c1 | 110 nM | 510 nM |
| NS(=O)(=O)c1ccc(NC(=O)CNCC(=O)O)c(Cl)c1 | 165 nM | 975 nM |
| NS(=O)(=O)c1ccccc1NC(=O)CNCCNCC(=O)O | 1020 nM | 20500 nM |
| NS(=O)(=O)c1ccc(CCOC(=O)CN(CC(=O)O)CC(=O)O)cc1 | 320 nM | 1100 nM |
| NS(=O)(=O)c1cc(S(N)(=O)=O)c(NC(=O)CN(CCN(CC(=O)O)CC(=O)O)CC(=O)O)c(Cl)c1Cl | 96 nM | 130 nM |
| NS(=O)(=O)c1ccc(NC(=O)CNCC(=O)O)c(Br)c1 | 57 nM | 610 nM |
| NS(=O)(=O)c1ccc(NC(=O)CN(CCN(CC(=O)O)CC(=O)O)CC(=O)O)c(Cl)c1 | 69 nM | 700 nM |
| NS(=O)(=O)c1ccc(CNC(=O)CNCC(=O)O)cc1 | 279 nM | 3600 nM |
| NS(=O)(=O)c1ccc(NC(=O)CN(CCN(CC(=O)O)CC(=O)Nc2ccc(S(N)(=O)=O)cc2I)CC(=O)O)c(I)c1 | 45 nM | 89 nM |
| NS(=O)(=O)c1ccccc1NC(=O)CN(CC(=O)O)CC(=O)O | 1200 nM | 25800 nM |
| NS(=O)(=O)c1ccc(NC(=O)CN(CCN(CC(=O)O)c2ccccc2O)c2ccccc2O)cc1 | 320 nM | 11500 nM |
| NS(=O)(=O)c1ccc(NNC(=O)CN(CCN(CC(=O)O)CC(=O)O)CC(=O)O)cc1 | 750 nM | 16000 nM |
| NS(=O)(=O)c1cc(S(N)(=O)=O)c(NC(=O)CN(CC(=O)O)CC(=O)O)cc1Cl | 148 nM | 300 nM |
| NS(=O)(=O)c1ccc(NC(=O)CN(CCOCCOCCN(CC(=O)O)CC(=O)Nc2ccc(S(N)(=O)=O)cc2)CC(=O)O)cc1 [listing 2 of 2 here] | 76 nM | 300 nM |
| NS(=O)(=O)c1cccc(NC(=O)CN(CCN(CC(=O)O)CC(=O)O)CC(=O)O)c1 | 750 nM | 10000 nM |

These reach a lower Ki (Carbonic anhydrase 4). Values come first.

| Ki (Carbonic anhydrase 4) | Ki (Carbonic anhydrase 1) | Structure (SMILES) |
| --- | --- | --- |
| 13 nM | 62 nM | NS(=O)(=O)c1nc2ccc(NC(=O)CN(CC(=O)O)CC(=O)O)cc2s1 |
| 6 nM | 25 nM | NS(=O)(=O)c1nc2ccc(OCCOC(=O)CN(CCN(CC(=O)O)CC(=O)OCCOc3ccc4nc(S(N)(=O)=O)sc4c3)CC(=O)O)cc2s1 |
| 5 nM | 21 nM | NS(=O)(=O)c1nc2ccc(OC(=O)CN(CCOCCOCCN(CC(=O)O)CC(=O)Oc3ccc4nc(S(N)(=O)=O)sc4c3)CC(=O)O)cc2s1 |
| 12 nM | 30 nM | NS(=O)(=O)c1ccc(CCNC(=O)CN(CCOCCOCCN(CC(=O)O)CC(=O)NCCc2ccc(S(N)(=O)=O)cc2)CC(=O)O)cc1 [listing 1 of 2 here] |
| 30 nM | 230 nM | NS(=O)(=O)c1ccc(NC(=O)CN(CCOCCOCCN(CC(=O)O)CC(=O)O)CC(=O)O)c(Cl)c1 |
| 9 nM | 43 nM | NS(=O)(=O)c1nc2ccc(OCCOC(=O)CNCCNCC(=O)O)cc2s1 |
| 12 nM | 47 nM | NS(=O)(=O)c1nc2ccc(OC(=O)CN(CCN(CC(=O)O)c3ccccc3O)c3ccccc3O)cc2s1 |
| 8 nM | 37 nM | NS(=O)(=O)c1nc2ccc(OC(=O)CN(CCN(CC(=O)O)CC(=O)Oc3ccc4nc(S(N)(=O)=O)sc4c3)CC(=O)O)cc2s1 |
| 8 nM | 39 nM | NS(=O)(=O)c1nc2ccc(OCCOC(=O)CN(CCN(CC(=O)O)CC(=O)O)CC(=O)O)cc2s1 |
| 32 nM | 290 nM | NS(=O)(=O)c1ccc(CCNC(=O)CN(CCOCCOCCN(CC(=O)O)CC(=O)O)CC(=O)O)cc1 |
| 12 nM | 46 nM | NS(=O)(=O)c1nc2ccc(OCCOC(=O)CNCC(=O)O)cc2s1 |
| 16 nM | 35 nM | NS(=O)(=O)c1ccc(CNC(=O)CN(CCOCCOCCN(CC(=O)O)CC(=O)NCc2ccc(S(N)(=O)=O)cc2)CC(=O)O)cc1 [listing 2 of 2 here] |
| 7 nM | 32 nM | Cn1nc(S(N)(=O)=O)s/c1=N/C(=O)CN(CCOCCOCCN(CC(=O)O)CC(=O)/N=c1/sc(S(N)(=O)=O)nn1C)CC(=O)O [listing 1 of 2 here] |
| 9 nM | 54 nM | Cn1nc(S(N)(=O)=O)s/c1=N/C(=O)CN(CCN(CCN(CC(=O)O)CC(=O)/N=c1/sc(S(N)(=O)=O)nn1C)CC(=O)O)CC(=O)O |
| 11 nM | 48 nM | NS(=O)(=O)c1nc2ccc(NC(=O)CN(CCN(CC(=O)O)CC(=O)O)CC(=O)O)cc2s1 |
| 5 nM | 15 nM | NS(=O)(=O)c1nc2ccc(OCCOC(=O)CN(CCOCCOCCN(CC(=O)O)CC(=O)OCCOc3ccc4nc(S(N)(=O)=O)sc4c3)CC(=O)O)cc2s1 |
| 5 nM | 36 nM | Cn1nc(S(N)(=O)=O)s/c1=N/C(=O)CN(CCOCCOCCN(CC(=O)O)CC(=O)/N=c1/sc(S(N)(=O)=O)nn1C)CC(=O)O [listing 2 of 2 here] |
| 20 nM | 160 nM | NS(=O)(=O)c1ccc(CCNC(=O)CN(CCOCCOCCN(CC(=O)O)CC(=O)NCCc2ccc(S(N)(=O)=O)cc2)CC(=O)O)cc1 [listing 2 of 2 here] |
| 22 nM | 150 nM | NS(=O)(=O)c1ccc(NC(=O)CN(CCOCCOCCN(CC(=O)O)CC(=O)Nc2ccc(S(N)(=O)=O)cc2Cl)CC(=O)O)c(Cl)c1 |
| 12 nM | 56 nM | NS(=O)(=O)c1nc2ccc(NC(=O)CNCCNCC(=O)O)cc2s1 |
| 10 nM | 43 nM | NS(=O)(=O)c1nc2ccc(OC(=O)CN(CCN(CC(=O)O)CC(=O)O)CC(=O)O)cc2s1 |
| 5 nM | 33 nM | NS(=O)(=O)c1nc2ccc(OC(=O)CN(CCOCCOCCN(CC(=O)O)CC(=O)O)CC(=O)O)cc2s1 |
| 7 nM | 41 nM | NS(=O)(=O)c1nc2ccc(OCCOC(=O)CN(CCN(CC(=O)O)c3ccccc3O)c3ccccc3O)cc2s1 |
